From patent publication US20220380347A1, “INHIBITORS OF CYSTEINE PROTEASES AND METHODS OF USE THEREOF” (Pardes Biosciences, Inc., priority 2020, published 2022)
Read-outs that look alike come from different tables or passages of the source.

What was measured:
HCov OC43 = experiment: HCoV OC43 cytopathic effect (CPE) assay, CellTiter Glo; type: cell-based, human coronavirus (HCov) OC43
Description: Example 238: Evaluation of antiviral activity of compounds against human coronavirus (HCov) 229E and OC43 in the cytopathic effect (CPE) assays
Compounds were assayed using standard methods against multiple coronaviral strains, including HCoV 229E and OC43 strains. The antiviral activity of compounds was calculated based on the protection of the virus-induced CPE at each concentration normalized by the virus control.
Reference compound used was remdesivir; detection reagent: CellTiter Glo.) The CPE were measured by CellTiter Glo following the manufacturer's manual. The antiviral activity of compounds was calculated based on the protection of the virus-induced CPE at each concentration normalized by the virus control.
Cell viability was measured with CellTiter Glo.

[1] = biological target: COVID-19 (nCoV-2019, SARS-CoV2) Mpro (Severe acute respiratory syndrome coronavirus 2, UniProt P0DTD1); experiment: COVID-19 (nCoV-2019, SARS-CoV2) Mpro enzymatic assay; type: biochemical; conditions: 25 nM Mpro, 25 μM substrate; read-out: COVID-19 Mpro IC50
229E Mpro = 229E Mpro (Human coronavirus 229E, UniProt P0C6X1); experiment: 229E Mpro enzymatic assay (standard methods, SARS-CoV2 Mpro assay given as exemplary); type: biochemical, human coronavirus (HCov) 229E
Description: Compounds were assayed using standard methods to assess compound activity and IC50. As an exemplary for assessment of the SARS-COV2 Mpro, the C-His6-tagged Mpro (NC_045512) was cloned, expressed in E. coli and purified. The assay buffer contained 20 mM of Tris-HCl (pH 7.3), 100 mM of NaCl, 1 mM of EDTA, 5 mM of TCEP and 0.1% BSA. The final concentrations of the Mpro protein and substrate were 25 nM and 25 μM, respectively, in the Mpro enzymatic assay. The Km of the Mpro substrate for the protease was 13.5 μM.
The compounds were added to an assay plate. […] For no inhibition control (ZPE, zero percent effect), no compound was added.
IC50 values of compounds were calculated with the GraphPad Prism software using the nonlinear regression model of log(inhibitor) vs. response—Variable slope (four parameters). The inhibition activity was calculated using the formula below, IC50 values is calculated using the Inhibition % data.
Inhibition %=[(Sample-Average ZPE)/(Average HPE-Average ZPE)]*100%^#

[2] = Betacoronavirus 1, OC43, read-out: OC43 IC50 (uM) MEDIAN, median
[3] = read-out: OC43 IC50 (uM) MEDIAN, median

229E Mpro, sequence (P0C6X1 2966-3267): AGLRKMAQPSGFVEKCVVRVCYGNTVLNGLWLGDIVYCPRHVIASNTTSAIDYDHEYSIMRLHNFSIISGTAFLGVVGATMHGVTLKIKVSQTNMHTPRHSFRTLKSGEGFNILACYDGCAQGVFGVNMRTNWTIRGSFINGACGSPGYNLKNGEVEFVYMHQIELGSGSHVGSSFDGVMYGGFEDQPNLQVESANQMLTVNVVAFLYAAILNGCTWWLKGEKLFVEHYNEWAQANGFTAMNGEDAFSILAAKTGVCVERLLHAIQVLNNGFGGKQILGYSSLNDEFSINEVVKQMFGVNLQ

| Compound | IC50 (HCov OC43; [2]) [µM] | IC50 [1] [µM] | EC50 (229E Mpro; 229E Mpro EC50) [µM] | IC50 (HCov OC43; [3]) [µM] | EC50 (229E Mpro; read-out: 229E Mpro EC50) [µM] |
| --- | --- | --- | --- | --- | --- |
| CC(C)(C)c1ccc(N(C(=O)[C@H]2C[C@@H](O)CN2C#N)C(C(=O)NC2CCCCC2)c2cncc(Cl)c2)cc1 (single isomer, unassigned) [675 Isomer 1] | < 2 | < 2 | < 2 |  |  |
| CC(C)(C)c1ccc(N(C(=O)[C@H]2C[C@@H](O)CN2C#N)C(C(=O)NC2CCCCC2)c2cncc(Cl)c2)cc1 (single isomer, unassigned) [675 Isomer 2] |  | 2 to 10 |  | 2 to 10 | < 2 |
| N#CN1C[C@H](O)C[C@@H]1C(=O)N(c1ccc(C2(C(F)(F)F)CC2)cc1)C(C(=O)NC1CCCCC1)c1cccnc1 (single isomer, unassigned) [735 Isomer 1] | < 2 | < 2 | < 2 |  |  |
| N#CN1C[C@H](O)C[C@@H]1C(=O)N(c1ccc(C2(C(F)(F)F)CC2)cc1)C(C(=O)NC1CCCCC1)c1cccnc1 (single isomer, unassigned) [735 Isomer 2] |  | 2 to 10 |  | 2 to 10 | < 2 |
| CC(C)(C)c1ccc(N(C(=O)C2CCC(F)(F)CN2C#N)C(C(=O)NC2CCCCC2)c2cccnc2)cc1 (single isomer, unassigned) [885 Isomer 1, N-(4-(tert-butyl)phenyl)-1-cyano-N-(2-(cyclohexylamino)-2-oxo-1-(pyridin-3-yl)ethyl)-5,5-difluoropiperidine-2-carboxamide] |  | > 30 | 10 to 30 | > 30 |  |
| CC(C)(C)c1ccc(N(C(=O)C2CCC(F)(F)CN2C#N)C(C(=O)NC2CCCCC2)c2cccnc2)cc1 (single isomer, unassigned) [885 Isomer 2, N-(4-(tert-butyl)phenyl)-1-cyano-N-(2-(cyclohexylamino)-2-oxo-1-(pyridin-3-yl)ethyl)-5,5-difluoropiperidine-2-carboxamide] |  | < 2 | < 2 | 2 to 10 |  |
| CC1(O)CN(C(=O)C(c2cccnc2)N(C(=O)[C@H]2CCCN2C#N)c2ccc(C(C)(C)C)cc2)C1 (single isomer, unassigned) [955 Isomer 1] |  | 2 to 10 | 2 to 10 | 2 to 10 |  |
| CC1(O)CN(C(=O)C(c2cccnc2)N(C(=O)[C@H]2CCCN2C#N)c2ccc(C(C)(C)C)cc2)C1 (single isomer, unassigned) [955 Isomer 2] |  | 10 to 30 |  | 10 to 30 | 2 to 10 |
| CC1(C)CN(C#N)[C@@H](C(=O)N(c2ccc(S(F)(F)(F)(F)F)cc2)C(C(=O)NC2CCC(F)(F)CC2)c2cncc(F)c2)CO1 (single isomer, unassigned) [1086b Isomer 1] | < 2 | < 2 | < 2 |  |  |
| CC1(C)CN(C#N)[C@@H](C(=O)N(c2ccc(S(F)(F)(F)(F)F)cc2)C(C(=O)NC2CCC(F)(F)CC2)c2cncc(F)c2)CO1 (single isomer, unassigned) [1086b Isomer 2] |  | 2 to 10 |  | 2 to 10 | < 2 |
| N#CN1CC(F)(F)C[C@@H]1C(=O)N(c1ccc(S(F)(F)(F)(F)F)cc1)C(C(=O)NC1CCC(F)(F)CC1)c1cccnc1 (single isomer, unassigned) [1087 Isomer 1] |  | < 2 | < 2 | < 2 |  |
| N#CN1CC(F)(F)C[C@@H]1C(=O)N(c1ccc(S(F)(F)(F)(F)F)cc1)C(C(=O)NC1CCC(F)(F)CC1)c1cccnc1 (single isomer, unassigned) [1087 Isomer 2] |  | 2 to 10 |  | > 30 | < 2 |
| CC1(C)CCN(C#N)[C@H]1C(=O)N(c1ccc(S(F)(F)(F)(F)F)cc1)C(C(=O)NC1CCC(F)(F)CC1)c1cncc(F)c1 (single isomer, unassigned) [1094 Isomer 1] |  | < 2 | < 2 | < 2 |  |
| CC1(C)CCN(C#N)[C@H]1C(=O)N(c1ccc(S(F)(F)(F)(F)F)cc1)C(C(=O)NC1CCC(F)(F)CC1)c1cncc(F)c1 (single isomer, unassigned) [1094 Isomer 2] |  | 10 to 30 | 2 to 10 | 10 to 30 |  |
| N#CN1C[C@@H]2C[C@@H]2[C@@H]1C(=O)N(c1ccc(S(F)(F)(F)(F)F)cc1)C(C(=O)NC1CCC(F)(F)CC1)c1cncc(F)c1 (single isomer, unassigned) [1096 Isomer 1] | 2 to 10 | 2 to 10 | < 2 |  |  |
| N#CN1C[C@@H]2C[C@@H]2[C@@H]1C(=O)N(c1ccc(S(F)(F)(F)(F)F)cc1)C(C(=O)NC1CCC(F)(F)CC1)c1cncc(F)c1 (single isomer, unassigned) [1096 Isomer 2] |  | < 2 |  | < 2 | < 2 |
| N#CN1C[C@@H]2CC[C@@H]2[C@@H]1C(=O)N(c1ccc(S(F)(F)(F)(F)F)cc1)C(C(=O)NC1CCC(F)(F)CC1)c1cncc(F)c1 (single isomer, unassigned) [1097 Isomer 1] | < 2 | < 2 | < 2 |  |  |
| N#CN1C[C@@H]2CC[C@@H]2[C@@H]1C(=O)N(c1ccc(S(F)(F)(F)(F)F)cc1)C(C(=O)NC1CCC(F)(F)CC1)c1cncc(F)c1 (single isomer, unassigned) [1097 Isomer 2] |  | 10 to 30 | 2 to 10 | 2 to 10 |  |
| N#C[C@H]1C[C@H](C(=O)N(c2ccc(S(F)(F)(F)(F)F)cc2)C(C(=O)NC2CCC(F)(F)CC2)c2cncc(F)c2)N(C#N)C1 (single isomer, unassigned) [1100 Isomer 1] | < 2 | < 2 | < 2 |  |  |
| N#C[C@H]1C[C@H](C(=O)N(c2ccc(S(F)(F)(F)(F)F)cc2)C(C(=O)NC2CCC(F)(F)CC2)c2cncc(F)c2)N(C#N)C1 (single isomer, unassigned) [1100 Isomer 2] |  | < 2 |  | < 2 | < 2 |
| CS(=O)(=O)[C@H]1C[C@H](C(=O)N(c2ccc(S(F)(F)(F)(F)F)cc2)C(C(=O)NC2CCC(F)(F)CC2)c2cncc(F)c2)N(C#N)C1 (single isomer, unassigned) [1105 Isomer 1] | < 2 | < 2 | < 2 |  |  |
| CS(=O)(=O)[C@H]1C[C@H](C(=O)N(c2ccc(S(F)(F)(F)(F)F)cc2)C(C(=O)NC2CCC(F)(F)CC2)c2cncc(F)c2)N(C#N)C1 (single isomer, unassigned) [1105 Isomer 2] |  | < 2 |  | < 2 | < 2 |
| CO[C@@H]1C[C@H](C(=O)N(c2ccc(S(F)(F)(F)(F)F)cc2)C(C(=O)N(C)CC(=O)NC2CC2)c2cccnc2)N(C#N)C1 (single isomer, unassigned) [1122 Isomer 1] |  | < 2 |  | < 2 | < 2 |
| CO[C@@H]1C[C@H](C(=O)N(c2ccc(S(F)(F)(F)(F)F)cc2)C(C(=O)N(C)CC(=O)NC2CC2)c2cccnc2)N(C#N)C1 (single isomer, unassigned) [1122 Isomer 2] |  | 10 to 30 |  | 2 to 10 | < 2 |
| CC1(C)CN(C#N)[C@@H](C(=O)N(c2ccc(C(C)(C)C)cc2)C(C(=O)NC2CCOCC2)c2cccnc2)CO1 (single isomer, unassigned) [1141 Isomer 1] |  | 2 to 10 | 10 to 30 | 2 to 10 |  |
| CC1(C)CN(C#N)[C@@H](C(=O)N(c2ccc(C(C)(C)C)cc2)C(C(=O)NC2CCOCC2)c2cccnc2)CO1 (single isomer, unassigned) [1141 Isomer 2] |  | < 2 | < 2 | 2 to 10 |  |
| CC1(C)CN(C#N)[C@@H](C(=O)N(c2ccc(C(C)(C)C)cc2)C(C(=O)NC2CCOCC2)c2cccnc2)CO1 (single isomer, unassigned) [1141 Isomer 3] |  | > 30 | 10 to 30 | > 30 |  |
